Here are results for 1 compound from ChEMBL document CHEMBL4837239, “Identification of Thieno[3,2-d]pyrimidine Derivatives as Dual Inhibitors of Focal Adhesion Kinase and FMS-like Tyrosine Kinase 3” (J Med Chem, 2021).

Activity calls are given as the source filed them. No cut-off for these calls is given here.

Assay [1] deals with Non-receptor tyrosine-protein kinase TYK2 (Homo sapiens, UniProt P29597). Nature of the assay: Inhibition of TYK2 (unknown origin).
The target in assay [2] is Tyrosine-protein kinase Fes/Fps (Homo sapiens, UniProt P07332). Nature of the assay: Inhibition of Fes (unknown origin).
Tyrosine-protein kinase Fes/Fps, sequence (P07332 whole entry): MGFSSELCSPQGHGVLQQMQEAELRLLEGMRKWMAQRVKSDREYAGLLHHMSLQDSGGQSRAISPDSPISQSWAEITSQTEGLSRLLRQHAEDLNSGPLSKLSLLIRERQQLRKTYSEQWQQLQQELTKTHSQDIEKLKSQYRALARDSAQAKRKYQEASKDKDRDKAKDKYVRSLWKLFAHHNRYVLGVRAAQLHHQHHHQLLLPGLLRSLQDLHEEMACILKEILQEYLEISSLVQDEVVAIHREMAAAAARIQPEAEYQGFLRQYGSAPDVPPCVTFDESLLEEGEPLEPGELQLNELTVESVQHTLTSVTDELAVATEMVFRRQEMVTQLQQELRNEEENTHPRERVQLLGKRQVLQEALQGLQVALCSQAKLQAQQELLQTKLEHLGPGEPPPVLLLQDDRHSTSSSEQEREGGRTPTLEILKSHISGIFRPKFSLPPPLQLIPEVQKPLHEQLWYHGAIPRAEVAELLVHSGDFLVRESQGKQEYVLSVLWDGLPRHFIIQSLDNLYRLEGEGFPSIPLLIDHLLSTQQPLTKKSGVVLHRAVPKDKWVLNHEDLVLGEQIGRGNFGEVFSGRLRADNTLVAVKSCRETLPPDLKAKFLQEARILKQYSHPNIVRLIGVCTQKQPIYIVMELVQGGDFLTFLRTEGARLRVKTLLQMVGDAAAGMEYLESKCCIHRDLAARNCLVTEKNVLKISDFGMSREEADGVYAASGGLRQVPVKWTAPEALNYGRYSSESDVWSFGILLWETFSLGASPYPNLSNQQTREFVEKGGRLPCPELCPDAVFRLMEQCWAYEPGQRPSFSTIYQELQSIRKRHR
The target in assay [3] is Tyrosine-protein kinase Lck (Homo sapiens, UniProt P06239). Nature of the assay: Inhibition of Lck (unknown origin) at 0.1 uM.
Tyrosine-protein kinase Lck, sequence (P06239 2-509 limits assumed): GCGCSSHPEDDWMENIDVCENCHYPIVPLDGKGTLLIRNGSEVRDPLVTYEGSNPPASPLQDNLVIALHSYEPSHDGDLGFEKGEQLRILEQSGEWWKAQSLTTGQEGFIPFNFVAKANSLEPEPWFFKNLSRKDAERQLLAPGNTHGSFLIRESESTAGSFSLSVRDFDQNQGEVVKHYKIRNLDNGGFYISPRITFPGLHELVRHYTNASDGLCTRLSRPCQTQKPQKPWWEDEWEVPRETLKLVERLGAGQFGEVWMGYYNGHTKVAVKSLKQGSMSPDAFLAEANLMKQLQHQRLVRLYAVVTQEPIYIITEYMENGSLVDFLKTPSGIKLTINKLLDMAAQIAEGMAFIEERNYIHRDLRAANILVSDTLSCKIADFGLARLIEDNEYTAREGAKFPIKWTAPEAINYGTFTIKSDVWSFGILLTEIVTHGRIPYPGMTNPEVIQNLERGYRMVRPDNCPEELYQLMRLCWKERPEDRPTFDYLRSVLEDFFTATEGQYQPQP
In assay [4] the target is Proto-oncogene tyrosine-protein kinase ROS (Homo sapiens, UniProt P08922). Nature of the assay: Inhibition of ROS (unknown origin) at 0.1 uM.
Proto-oncogene tyrosine-protein kinase ROS, sequence (P08922 whole entry): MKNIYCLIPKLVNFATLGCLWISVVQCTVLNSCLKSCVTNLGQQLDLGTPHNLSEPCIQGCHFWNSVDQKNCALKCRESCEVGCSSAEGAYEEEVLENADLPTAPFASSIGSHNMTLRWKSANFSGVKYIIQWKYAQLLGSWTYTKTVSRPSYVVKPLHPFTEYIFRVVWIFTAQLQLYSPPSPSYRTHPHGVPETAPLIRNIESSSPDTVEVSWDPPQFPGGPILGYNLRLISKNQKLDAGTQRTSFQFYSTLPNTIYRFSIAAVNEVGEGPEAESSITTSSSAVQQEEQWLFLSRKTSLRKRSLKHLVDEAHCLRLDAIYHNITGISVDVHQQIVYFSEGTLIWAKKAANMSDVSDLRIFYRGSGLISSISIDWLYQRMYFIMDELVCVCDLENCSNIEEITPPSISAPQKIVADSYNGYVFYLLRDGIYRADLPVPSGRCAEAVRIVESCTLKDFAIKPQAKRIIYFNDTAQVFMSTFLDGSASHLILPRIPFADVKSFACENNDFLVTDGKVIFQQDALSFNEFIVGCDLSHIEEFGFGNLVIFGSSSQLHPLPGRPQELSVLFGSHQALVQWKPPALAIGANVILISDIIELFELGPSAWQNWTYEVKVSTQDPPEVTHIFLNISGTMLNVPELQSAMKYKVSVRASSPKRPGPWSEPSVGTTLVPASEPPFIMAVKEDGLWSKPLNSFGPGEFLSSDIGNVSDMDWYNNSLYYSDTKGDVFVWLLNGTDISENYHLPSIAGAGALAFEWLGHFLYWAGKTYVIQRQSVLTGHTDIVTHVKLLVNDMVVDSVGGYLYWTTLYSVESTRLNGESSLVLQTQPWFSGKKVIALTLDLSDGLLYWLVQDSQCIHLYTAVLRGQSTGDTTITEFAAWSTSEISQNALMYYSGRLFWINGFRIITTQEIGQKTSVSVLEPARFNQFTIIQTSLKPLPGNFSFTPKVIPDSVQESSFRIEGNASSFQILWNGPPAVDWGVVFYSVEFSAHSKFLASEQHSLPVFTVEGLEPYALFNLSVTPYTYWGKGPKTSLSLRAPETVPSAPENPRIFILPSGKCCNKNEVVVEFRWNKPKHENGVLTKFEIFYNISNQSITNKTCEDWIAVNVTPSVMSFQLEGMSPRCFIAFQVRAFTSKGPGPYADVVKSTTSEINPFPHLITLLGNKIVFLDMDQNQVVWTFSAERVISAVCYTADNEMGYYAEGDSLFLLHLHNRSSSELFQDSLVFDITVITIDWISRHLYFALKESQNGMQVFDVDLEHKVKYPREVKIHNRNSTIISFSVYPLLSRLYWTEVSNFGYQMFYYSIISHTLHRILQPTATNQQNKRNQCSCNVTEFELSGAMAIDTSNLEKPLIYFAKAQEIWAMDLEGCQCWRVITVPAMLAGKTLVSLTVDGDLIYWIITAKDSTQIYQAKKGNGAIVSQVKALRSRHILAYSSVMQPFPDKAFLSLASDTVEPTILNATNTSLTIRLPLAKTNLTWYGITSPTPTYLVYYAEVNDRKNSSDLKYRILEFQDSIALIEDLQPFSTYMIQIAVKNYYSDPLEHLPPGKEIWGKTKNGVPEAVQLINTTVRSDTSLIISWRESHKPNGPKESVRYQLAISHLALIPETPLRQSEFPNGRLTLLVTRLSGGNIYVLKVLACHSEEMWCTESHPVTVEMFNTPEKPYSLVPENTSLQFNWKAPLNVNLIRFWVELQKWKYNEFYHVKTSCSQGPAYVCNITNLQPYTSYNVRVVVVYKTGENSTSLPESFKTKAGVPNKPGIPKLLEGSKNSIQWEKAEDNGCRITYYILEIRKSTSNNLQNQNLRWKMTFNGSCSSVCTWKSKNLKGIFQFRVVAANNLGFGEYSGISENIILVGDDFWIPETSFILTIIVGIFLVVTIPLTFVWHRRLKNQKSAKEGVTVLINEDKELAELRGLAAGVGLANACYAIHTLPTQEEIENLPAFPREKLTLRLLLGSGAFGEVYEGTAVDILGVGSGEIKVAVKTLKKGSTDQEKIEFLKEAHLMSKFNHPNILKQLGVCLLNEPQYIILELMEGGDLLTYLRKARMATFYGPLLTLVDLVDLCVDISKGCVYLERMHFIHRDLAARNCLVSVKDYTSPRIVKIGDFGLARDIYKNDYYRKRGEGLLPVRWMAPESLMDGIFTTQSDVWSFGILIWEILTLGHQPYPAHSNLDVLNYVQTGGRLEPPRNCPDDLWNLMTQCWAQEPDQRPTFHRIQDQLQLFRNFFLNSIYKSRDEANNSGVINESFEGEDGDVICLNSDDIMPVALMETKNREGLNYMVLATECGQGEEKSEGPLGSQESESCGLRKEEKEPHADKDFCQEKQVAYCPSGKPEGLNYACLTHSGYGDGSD
Another assay concerns Melanoma cell line. In words: Antiproliferative activity against human skin cancer cells assessed as growth inhibition measured after 72 hrs by MTT assay. In kind it is functional, cell-based. A general note: Tetrazolium dyes change colour on reduction, which living cells bring about.
A further assay deals with Prostatic carcinoma cell. In words: Antiproliferative activity against human prostate cancer cells assessed as growth inhibition measured after 72 hrs by MTT assay. The assay is classed as functional, cell-based.
Another assay concerns NCI-H23. In words: Antiproliferative activity against human NCI-H23 cells assessed as growth inhibition measured after 72 hrs by MTT assay. The assay is classed as functional, cell-based.
The test system of assay [5] is BaF3. In words: Antiproliferative activity against mouse Ba/F3 cells harbouring FLT3 ITD mutant assessed as growth inhibition measured after 72 hrs by CellTiter-Glo assay. The assay is classed as functional. The following applies: Mus musculus, BaF3. Background: Cellular ATP, detected with luciferase, serves as a proxy for viable cell number.
Assay [6] deals with BaF3. In words: Antiproliferative activity against mouse Ba/F3 cells harbouring FLT3 ITD F691L mutant assessed as growth inhibition measured after 72 hrs by CellTiter-Glo assay. The assay is classed as functional. The settings on record: Mus musculus, BaF3.
Assay [7] concerns MDA-MB-231. Nature of the assay: Induction of apoptosis in human MDA-MB-231 cells assessed as cleaved PARP at 0.1 to 10 uM incubated for 24 hrs by Western blot analysis. In kind it is functional, cell-based. The following applies: dose 0.1-10 µM. On the technique in general: In western blotting, separated proteins are transferred to a membrane and probed.
Assay [8] has as its system MDA-MB-231. In words: Induction of apoptosis in human MDA-MB-231 cells assessed as cleaved caspase-3 at 0.1 to 10 uM incubated for 24 hrs by Western blot analysis. In kind it is functional, cell-based. The settings on record: dose 0.1-10 µM.
The subject of another assay is HCT-116. Nature of the assay: Growth inhibition of anchorage-Independent human HCT-116 cells assessed as decrease in number of colonies at 1 uM incubated for 72 hrs by MTT assay relative to control. In kind it is functional, cell-based.
Assay [9] relates to MDA-MB-231. In words: Antimetastatic activity against human MDA-MB-231 cells expressing firefly luciferase xenografted NSG orthotopic mouse model assessed as reduction in luminescence intensity at lung at 70 mg/kg, po once daily measured for 2 weeks. The assay is classed as functional, organism-based.
Assay [10] relates to T1, Receptor-type tyrosine-protein kinase FLT3 (Homo sapiens), P36888 [D835Y].
T1 sequence (whole entry): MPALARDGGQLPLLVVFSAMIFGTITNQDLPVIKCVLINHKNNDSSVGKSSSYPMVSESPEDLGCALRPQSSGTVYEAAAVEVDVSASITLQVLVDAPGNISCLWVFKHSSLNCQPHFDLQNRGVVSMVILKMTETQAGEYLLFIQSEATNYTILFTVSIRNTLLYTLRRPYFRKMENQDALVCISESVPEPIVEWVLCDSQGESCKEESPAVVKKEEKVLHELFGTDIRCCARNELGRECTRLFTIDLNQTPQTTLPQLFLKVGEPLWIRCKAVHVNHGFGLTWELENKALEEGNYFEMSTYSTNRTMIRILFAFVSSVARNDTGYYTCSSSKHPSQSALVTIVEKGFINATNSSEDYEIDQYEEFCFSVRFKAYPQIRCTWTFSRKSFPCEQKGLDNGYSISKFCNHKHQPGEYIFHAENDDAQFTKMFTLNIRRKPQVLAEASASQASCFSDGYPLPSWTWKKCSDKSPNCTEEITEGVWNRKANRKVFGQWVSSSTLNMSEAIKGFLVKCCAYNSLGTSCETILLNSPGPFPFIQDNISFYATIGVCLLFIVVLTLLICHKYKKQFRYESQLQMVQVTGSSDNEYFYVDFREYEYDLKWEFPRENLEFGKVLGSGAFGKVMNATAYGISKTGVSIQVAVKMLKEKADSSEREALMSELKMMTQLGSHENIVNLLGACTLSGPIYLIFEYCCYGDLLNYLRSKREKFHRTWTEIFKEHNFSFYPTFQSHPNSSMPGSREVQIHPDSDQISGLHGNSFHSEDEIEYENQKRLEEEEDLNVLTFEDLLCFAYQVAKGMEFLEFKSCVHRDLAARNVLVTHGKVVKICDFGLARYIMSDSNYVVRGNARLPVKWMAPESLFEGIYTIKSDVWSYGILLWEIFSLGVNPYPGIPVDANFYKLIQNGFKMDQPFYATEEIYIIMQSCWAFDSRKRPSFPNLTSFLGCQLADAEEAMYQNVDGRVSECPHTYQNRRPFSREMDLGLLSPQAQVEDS
Nature of the assay: Inhibition of FLT3-D835Y mutant (unknown origin) expressed in mouse Ba/F3 cells assessed as decrease in STAT5 phosphorylation at 10 nM by Western blot analysis. In kind it is cell-based. The settings on record: BaF3.

Non-receptor tyrosine-protein kinase TYK2, sequence (P29597 whole entry): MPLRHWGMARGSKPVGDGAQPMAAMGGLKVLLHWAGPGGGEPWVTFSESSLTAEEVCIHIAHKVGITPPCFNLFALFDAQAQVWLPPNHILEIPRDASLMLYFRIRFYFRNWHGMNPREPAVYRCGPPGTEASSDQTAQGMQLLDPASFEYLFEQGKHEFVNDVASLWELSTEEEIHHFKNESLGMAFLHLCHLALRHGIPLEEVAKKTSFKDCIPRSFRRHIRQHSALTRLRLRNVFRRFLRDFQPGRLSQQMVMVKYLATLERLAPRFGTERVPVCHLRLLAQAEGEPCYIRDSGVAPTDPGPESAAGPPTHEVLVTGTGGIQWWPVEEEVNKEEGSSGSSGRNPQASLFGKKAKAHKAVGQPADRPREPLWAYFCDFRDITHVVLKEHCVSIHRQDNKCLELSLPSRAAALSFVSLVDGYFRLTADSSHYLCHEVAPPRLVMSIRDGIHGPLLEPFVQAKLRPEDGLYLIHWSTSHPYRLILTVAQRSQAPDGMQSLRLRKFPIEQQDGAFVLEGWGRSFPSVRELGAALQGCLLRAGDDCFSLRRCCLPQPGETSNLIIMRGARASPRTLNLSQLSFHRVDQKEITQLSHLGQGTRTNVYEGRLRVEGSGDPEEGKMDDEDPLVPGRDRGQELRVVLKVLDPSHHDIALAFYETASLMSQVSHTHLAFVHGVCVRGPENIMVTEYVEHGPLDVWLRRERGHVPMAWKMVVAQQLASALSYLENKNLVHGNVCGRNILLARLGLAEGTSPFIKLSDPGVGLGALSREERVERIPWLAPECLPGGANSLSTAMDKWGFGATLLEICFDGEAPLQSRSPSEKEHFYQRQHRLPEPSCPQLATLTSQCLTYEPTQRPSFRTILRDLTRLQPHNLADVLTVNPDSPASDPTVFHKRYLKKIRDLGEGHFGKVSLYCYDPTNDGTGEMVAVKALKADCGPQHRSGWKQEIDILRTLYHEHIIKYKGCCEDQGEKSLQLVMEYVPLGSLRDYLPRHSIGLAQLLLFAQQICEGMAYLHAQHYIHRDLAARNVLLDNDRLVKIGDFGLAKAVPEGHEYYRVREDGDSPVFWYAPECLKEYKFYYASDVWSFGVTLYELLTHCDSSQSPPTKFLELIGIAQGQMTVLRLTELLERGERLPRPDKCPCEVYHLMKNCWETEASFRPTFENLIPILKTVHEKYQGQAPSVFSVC

What is called IC50 is the concentration that gives 50% inhibition. Lower therefore signals greater potency in that assay. As a reminder, the inhibition is the drop in the measured response relative to a control, in per cent. For orientation: GI50 means the concentration giving 50% growth inhibition. Take `CCN1CCN(c2ccc(Nc3ncc4scc(-c5cccc(NS(C)(=O)=O)c5)c4n3)cc2)CC1`: the results for the IC50 in assay [1] and in [2] were 4.3 nM and 4.9 nM, respectively. Also, the inhibition in assay [3] is 93.9%; in assay [4], 92.9%; in assay [10], 100%. For the same compound, the outcome in the assay with Melanoma cell line, with Prostatic carcinoma cell, with NCI-H23, in the assay with MDA-MB-231 [7], with MDA-MB-231 [8] and in the assay on MDA-MB-231 [9] was Active. For the same compound, the GI50 with BaF3 [5] worked out at 4 nM; in the assay with BaF3 [6], 60.5 nM. The “growth inhibition (GI)” value in the assay with HCT-116 is “Active”.
